The text below walks through data of publication PMC5443783, “Prostaglandin E2 glyceryl ester is an endogenous agonist of the nucleotide receptor P2Y6” (Scientific Reports, 2017).

In the assay the target is T1, cannabinoid receptor 2 (Cnr2) (Homo sapiens, UniProt P34972).
T1 construct: expressed in transfected cells; host or cells: HEK293
Put plainly: Intracellular Ca2+ measurement in CNR2-transfected HEK293 cells. The class given is cell-based. Conditions: 200 nM of 2-AG, Fig. 2c. How it is done:
RAW264.7 cells were grown in DMEM supplemented with 10% FBS, A7r5 (rat […]) cells in DMEM with 10% FBS, and A431 (human squamous carcinoma) cells in RPMI supplemented with 10% FBS. All cell lines were grown at 37 °C in a humidified 5% CO2 incubator. For functional assays, receptor constructs were heterologously expressed in human embryonic kidney (HEK293) cells upon transient or stable transfection. Cells were grown in DMEM/F12 supplemented with 10% FBS, 100 units/ml penicillin, and 100 µg/ml streptomycin. For the cAMP-inhibition assay, ERK1/2 phosphorylation assay, and Ca^2+ mobilization assay, cells were split into 96-well plates (2.0 × 10^4 cells/well) and transfected with 250 ng vector construct using MACSfectin™ (Miltenyi Biotec, Germany) according to manufacturer’s protocol. Empty vector (mock) served as the negative control. For siRNA experiments, cells were seeded in 6-well plates (4.0 × 10^5 and 6.0 × 10^5 cells/well for RAW264.7 and H1819, respectively). […]
For fluorometric measurements of intracellular Ca^2+ levels with the FlexStationII instrument (Molecular Devices), RAW264.7 and H1819 cells were seeded into 96-well plates (3.0 × 10^4 cells/well) 24 h prior to assay. […] Fold-response was calculated by RFUmax − RFUmin (ligand)/RFUmax − RFUmin (vehicle). EC50 values were calculated by using GraphPad Prism6 software (GraphPad, USA).

T1 sequence (P34972 whole entry): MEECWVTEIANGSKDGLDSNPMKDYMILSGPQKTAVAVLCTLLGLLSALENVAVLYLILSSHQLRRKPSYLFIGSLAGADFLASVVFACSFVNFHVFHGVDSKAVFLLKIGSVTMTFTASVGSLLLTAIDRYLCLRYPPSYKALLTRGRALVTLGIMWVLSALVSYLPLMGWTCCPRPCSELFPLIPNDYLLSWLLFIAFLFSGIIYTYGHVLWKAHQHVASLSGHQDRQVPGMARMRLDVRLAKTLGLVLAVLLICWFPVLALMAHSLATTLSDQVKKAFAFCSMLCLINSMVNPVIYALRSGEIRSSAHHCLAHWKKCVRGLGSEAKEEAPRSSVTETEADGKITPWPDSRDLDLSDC

In the case of “Prostaglandin E2 glyceryl ester [PGE2-G]”, the “effect on intracellular Ca2+” value is reported as “did not”.
